Measured values taken from patent publication US20230136702A1, “Inhibitors of Human Herpesviruses” (The Governors of the University of Alberta, priority 2020, published 2023).
Counter-ions that a name gives are not always drawn.

Experiments:
[1] = test system: HCMV US3-6-EGFP-HCMV-AD169 strain; test: In vitro inhibitory (antiviral) activity against HCMV, GFP reporter in MRC5 cells; format: cell-based, Human cytomegalovirus (HCMV); conditions: Human betaherpesvirus 5, AD169, MRC5, 96 h, read-out: HCMV Antiviral EC50 range
Experimental: (§1) Exemplary compounds (e.g., as described herein) were prepared as 20 mM stock solutions with DMSO. Reference compound was ganciclovir (Sigma). Compounds were tested at 8 concentrations, 3-fold serial dilutions, in duplicate for EC50 and CC50 determinations. The highest testing concentrations of the exemplary compounds and reference compound were 40 μM and 100 μM, respectively. The final concentration of DMSO in the cell culture was 0.5%.
HCMV US3-6-EGFP-HCMV-AD169 strain was obtained from Institute Pasteur of Shanghai, CAS. The virus contains GFP as a reporter of the viral replication.
(§2) MRC5 cells (ATCC CCL-171) was obtained from the ATCC and maintained in the EMEM (Sigma) supplemented with 10% FBS (HyClone), 1% L-glutamine (Gibco), 1% NEAA (Gibco), and 1% PS (Hyclone). Reagent:
In 96-well plates, MRC5 cells were seeded at 20,000 cells per well and cultured at 37° C. and 5% C02 overnight. Next day, compounds (8 concentrations, 3-fold dilutions, in duplicate) and US3-6-EGFP-HCMV-AD169 (MOI=0.1) were added to the cells. The resulting cultures were incubated at 37° C. and 5% C02 for 4 days. Fluorescence intensity was determined by Acumen Cellista (TTP LabTech). The antiviral activity of each compound was calculated based on the inhibition of expression of GFP at each concentration normalized by the cell control (cells without virus infection or compound treatment).
(§3) Antiviral activity and cytotoxicity of the compounds were expressed as % Inhibition and % Viability, respectively, and calculated with the formulas below:
Inhibition (%)=100−(Raw dataCPD−AverageCC)/(AverageVC−AverageCC)*100
(§4) Raw dataCPD indicates the values of the compound-treated wells; AverageVC, AverageCC and AverageMC indicate the average values of the virus control (cells infected with virus, without compound treatment), cell control and medium control wells, respectively.
(§5) EC50 and CC50 values were calculated using the GraphPad Prism software.

[2] = Cytotoxicity in MRC5 cells without virus infection (CCK8); format: cell-based; conditions: human
Experimental: as §1, §2
Cytotoxicity of the compounds was assessed under the same conditions, but without virus infection, in parallel. Cell viability was measured with CCK8 following the manufacturer's manual. CC50 values were then calculated based on cytotoxicity at the test concentrations normalized by the medium control (medium only).
as §3
Viability (%)=(Raw dataCPD−AverageMC)/(AverageCC−AverageMC)*100
as §4, §5

hERG potassium channel = biological target: T1, hERG potassium channel (Homo sapiens, UniProt Q12809); test: Inhibition of hERG potassium channel, automated patch clamp (SyncroPatch 384PE) in CHO cells; format: cell-based; conditions: CHO cells stably expressing hERG, room temperature, 0.494-40.00 μM; read-out: CHO-hERG Activity Range
T1 construct: host or cells: CHO cells stably expressing hERG
T1 sequence (Q12809 whole entry): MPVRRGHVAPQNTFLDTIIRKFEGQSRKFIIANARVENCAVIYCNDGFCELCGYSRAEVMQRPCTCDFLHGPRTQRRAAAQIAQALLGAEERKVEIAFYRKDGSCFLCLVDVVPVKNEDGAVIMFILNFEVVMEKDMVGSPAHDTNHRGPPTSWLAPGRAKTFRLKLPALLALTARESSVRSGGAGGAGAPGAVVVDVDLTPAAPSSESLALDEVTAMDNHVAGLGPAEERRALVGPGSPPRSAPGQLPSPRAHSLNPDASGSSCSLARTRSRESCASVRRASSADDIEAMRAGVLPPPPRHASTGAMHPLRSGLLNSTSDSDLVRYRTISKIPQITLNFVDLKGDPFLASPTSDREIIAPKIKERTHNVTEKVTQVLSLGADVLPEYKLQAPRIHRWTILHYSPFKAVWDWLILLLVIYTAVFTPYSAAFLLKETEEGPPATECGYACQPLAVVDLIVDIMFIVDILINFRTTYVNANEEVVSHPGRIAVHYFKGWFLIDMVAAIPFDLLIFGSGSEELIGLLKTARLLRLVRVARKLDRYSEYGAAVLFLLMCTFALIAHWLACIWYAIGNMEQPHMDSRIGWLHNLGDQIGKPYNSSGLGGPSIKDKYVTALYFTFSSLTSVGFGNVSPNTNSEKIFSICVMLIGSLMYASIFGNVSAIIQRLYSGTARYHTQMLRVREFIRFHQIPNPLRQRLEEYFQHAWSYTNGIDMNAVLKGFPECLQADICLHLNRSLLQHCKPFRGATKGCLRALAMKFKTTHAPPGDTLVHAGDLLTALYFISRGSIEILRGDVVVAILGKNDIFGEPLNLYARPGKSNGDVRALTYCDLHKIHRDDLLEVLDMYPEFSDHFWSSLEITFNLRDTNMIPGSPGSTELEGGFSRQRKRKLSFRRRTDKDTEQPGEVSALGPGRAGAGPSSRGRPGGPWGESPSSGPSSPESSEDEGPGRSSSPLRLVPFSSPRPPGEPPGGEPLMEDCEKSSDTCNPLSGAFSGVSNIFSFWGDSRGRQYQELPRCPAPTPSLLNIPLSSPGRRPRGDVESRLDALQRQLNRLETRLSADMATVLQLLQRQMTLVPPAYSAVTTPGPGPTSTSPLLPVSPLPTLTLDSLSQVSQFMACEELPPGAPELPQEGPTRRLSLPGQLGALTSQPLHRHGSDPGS
Experimental: This automated patch clamp method (SyncroPatch 384PE) CHO cells stably expressing hERG potassium channels from Sophion Biosciences were used for this test.
The cells were cultured in a humidified and air-controlled (5% C02) incubator at 37° C.
The CHO cells which were at least two days after plating and more than 75% confluent would be used for experiments. Before testing, cells were harvested using TrypLE and resuspended in the physiological solution at the room temperature.
For the electrophysiological recordings the following solutions were used (Table 5). The physiological solution and external solution were prepared at least one month. The intracellular solution was prepared in batches aliquoted, and stored at 4° C. until used.
Exemplary compounds (e.g., as described herein) were dissolved in 100% DMSO to obtain stock solutions for different test concentrations. Then the stock solutions were further diluted into external solution to achieve final concentrations for testing. Visual check for precipitation was conducted before testing. Final DMSO concentration in external solution was not more than 0.30% for the compounds.
From this holding potential of −80 mV, the voltage was first stepped to −50 mV for 80 ms for leak subtraction, and then stepped to +20 mV for 4800 ms to open hERG channels. After that, the voltage was stepped back down to −50 mV for 5000 ms, causing a “rebound” or tail current, which was measured and collected for data analysis. Finally, the voltage was stepped back to the holding potential (−80 mV, 1000 ms). This voltage command protocol was repeated every 20000 msec. This command protocol was performed continuously during the test (vehicle control and test compound).
hERG SyncroPatch assay was conducted at room temperature. The Setup, Prime Chip, Catch and Seal Cells, Amplifier Settings, Voltage and Application Protocols were established with Biomek Software (Nanion).
One addition of 40 μL of the vehicle was applied, followed by 300s for a baseline period. Then the doses of exemplary test compounds were added with 40 μL. The exposure of test compound at each concentration was no less than 300s. […] Five concentrations (0.494 μM, 1.48 μM, 4.44 μM, 13.33 μM and 40.00 μM) were tested for each compound. Minimum 2 replicates per concentration were obtained.
Within each well recording, percent of control values were calculated for each test compound concentration current response based on peak current in presence of reference control (current response/peak current)×100%. The Dose-Response curves were fit to the standard Hill equation as shown below:
Ipost cpd/Ipre cpd=Bottom+(Top−Bottom)/(1+10^((Log IC50−X)*HillSlope))
Where X is the logarithm of concentration, Ipost cpd/Ipre cpd is the normalized peak current amplitude, Top is 1 and Bottom is equal to 0.
Curve-fitting and IC50 calculations were performed by GraphPad Prism 5.0. If the inhibition obtained at the lowest concentration tested was over 50%, or at the highest concentration tested was less than 50%, we reported the IC50 as less than lowest concentration, or higher than highest concentration, respectively.

[3] = biological target: T2, HCMV DNA polymerase (UL54) (Human cytomegalovirus, UniProt P08546); test: HCMV DNA polymerase enzyme inhibition assay (ProFoldin, fluorescence); format: biochemical; conditions: 37° C., duplicate, max 40 μM
T2 construct: 6His (C); made in house; host or cells: Sf9 insect cells (baculovirus, pFastBac)
T2 sequence (P08546 whole entry): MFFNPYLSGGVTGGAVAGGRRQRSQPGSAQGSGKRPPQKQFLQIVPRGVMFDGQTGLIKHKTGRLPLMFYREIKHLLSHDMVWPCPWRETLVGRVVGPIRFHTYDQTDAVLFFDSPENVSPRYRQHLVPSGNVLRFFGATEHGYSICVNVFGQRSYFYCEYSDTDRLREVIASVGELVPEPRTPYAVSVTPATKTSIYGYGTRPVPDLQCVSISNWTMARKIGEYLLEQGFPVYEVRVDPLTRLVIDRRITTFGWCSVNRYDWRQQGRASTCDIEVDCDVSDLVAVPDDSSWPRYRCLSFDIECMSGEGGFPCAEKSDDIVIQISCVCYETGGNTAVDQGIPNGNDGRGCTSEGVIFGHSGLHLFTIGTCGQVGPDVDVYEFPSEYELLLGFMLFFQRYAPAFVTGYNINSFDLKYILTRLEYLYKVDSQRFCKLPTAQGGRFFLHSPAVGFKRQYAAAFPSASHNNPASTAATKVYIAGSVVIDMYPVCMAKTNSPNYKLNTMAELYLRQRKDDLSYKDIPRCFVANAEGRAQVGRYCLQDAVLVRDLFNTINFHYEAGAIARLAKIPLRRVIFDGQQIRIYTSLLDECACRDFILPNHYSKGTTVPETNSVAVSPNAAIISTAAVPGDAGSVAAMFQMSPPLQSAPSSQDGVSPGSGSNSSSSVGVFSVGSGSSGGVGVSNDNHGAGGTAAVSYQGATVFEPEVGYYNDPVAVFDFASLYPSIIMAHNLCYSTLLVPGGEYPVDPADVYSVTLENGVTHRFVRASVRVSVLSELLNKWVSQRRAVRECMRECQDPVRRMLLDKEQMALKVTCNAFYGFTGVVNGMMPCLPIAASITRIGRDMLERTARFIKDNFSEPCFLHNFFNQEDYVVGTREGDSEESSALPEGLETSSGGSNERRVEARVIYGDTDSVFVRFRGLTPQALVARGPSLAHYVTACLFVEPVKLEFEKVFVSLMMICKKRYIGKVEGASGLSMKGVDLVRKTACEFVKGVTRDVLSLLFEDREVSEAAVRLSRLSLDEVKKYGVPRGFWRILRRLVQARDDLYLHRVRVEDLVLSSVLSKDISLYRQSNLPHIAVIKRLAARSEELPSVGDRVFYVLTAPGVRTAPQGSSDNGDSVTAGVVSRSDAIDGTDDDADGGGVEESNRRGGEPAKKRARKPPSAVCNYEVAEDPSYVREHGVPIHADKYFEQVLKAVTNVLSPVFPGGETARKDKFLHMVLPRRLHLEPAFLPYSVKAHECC
Experimental: The HCMV DNA polymerase assay was developed by ProFoldin. The assay detects the formation of DNA from the DNA polymerase reaction in the presence of a DNA template, dATP and dGTP. The formation of the DNA is detected by using a fluorescence method. The fluorescence intensity increases when DNA is generated by the enzyme reaction.
A time-course experiment was performed aside the enzyme inhibition assay to ensure the assay was sensitive to the enzyme inhibition. The wells for the time-course experiment contained 1 μL of DMSO and the same reaction mixture as that in the enzyme inhibition assay. The time-course data varied between plates. The reactions were stopped when the fluorescence reached a value of about 3700 for each plate.
Exemplary solid compounds (e.g., as described herein) were dissolved in DMSO to make […] stock solutions. PFA (phosphonoformic acid or phosphonomethanoic acid) was used as a positive control. The compound mother plates were prepared at 50× concentrated compound concentrations with a 2-fold serial dilution. All the exemplary compounds except PFA were diluted in DMSO. PFA was diluted in water. The maximum compound concentration was 2 mM that gave the final concentration of 40 μM in the assay. One microliter of the 50× stock solutions was transferred into the assay plates. Three copies of assay plates were prepared, two for HCMV DNA polymerase assay and one for compound background control.
The following is the protocol for enzyme inhibition performed at 37° C.:
1. Prepared a premix composed of 35347 μL of H2O, 5220 μL of 10× assay buffer and 149 μL of 350×HCMV DNA polymerase.
2. Added 39 μL of the premix into the wells with 1 μL of the compound. Incubated the mixture for at least 5 min.
3. Added 10 μL of 5×dNTP (0.1 mM), 5×DNA template solutions into each well and incubated the solution until the fluorescence value reached a value about 3700 for the DMSO-only control wells.
4. Added 50 μL of the 1× dye into the wells.
5. Read the fluorescence at emission wavelength of 535 nm and excitation wavelength of 485 nm.
For the compound background reading, added 99 μL of water in the wells with 1 μL of compounds and read the fluorescence. […] The 0% inhibition value F0 was from the wells with DMSO (no inhibitor).
The background values were subtracted from the fluorescence reading to get the net fluorescence values. The net fluorescence values were used for calculation of the percentage inhibition.
The assay was performed in duplicate for the test article at […], 1.25, 0.625, 0.313, 0.156 and 0.078 μM. The IC50 curves were obtained by fitting the percentage inhibition values with the compound concentrations using Prism GraphPad software.

SMILES	EC50 [1]	CC50 at 4 days [2]	IC50 (hERG potassium channel)	IC50 [3]
CC1(C)CN(C(=O)Cn2c(=O)c(C(=O)NCc3ccc(Cl)cc3)cc3nc(N4CCN(CC(=O)O)C4=O)cnc32)C1 [Compound 5, [3-(7-{[(4-chlorophenyl)methyl]carbamoyl}-5-[2-(3,3-dimethylazetidin-1-yl)-2-oxoethyl]-6-oxo-5,6-dihydropyrido[2,3-b]pyrazin-2-yl)-2-oxoimidazolidin-1-yl]acetic acid]	> 1000 nM	> 40000 nM	> 10000 nM	
CC1(C)CN(C(=O)Cn2c(=O)c(C(=O)NCc3ccc(Cl)cc3)cc3cc(N4CCN(CC(=O)O)C4=O)cnc32)C1 [Compound 7, [3-(6-{[(4-chlorophenyl)methyl]carbamoyl}-8-[2-(3,3-dimethylazetidin-1-yl)-2-oxoethyl]-7-oxo-7,8-dihydro-1,8-naphthyridin-3-yl)-2-oxoimidazolidin-1-yl]acetic acid]	> 1000 nM	> 40000 nM	> 10000 nM	
CN1CCN(c2cnc3c(cc(C(=O)NCc4ccc(F)cc4)c(=O)n3CC(=O)N3CC4(CC4)C3)n2)C1=O [Compound 10, 5-[2-(5-azaspiro[2.3]hexan-5-yl)-2-oxoethyl]-N-[(4-fluorophenyl)methyl]-2-(3-methyl-2-oxoimidazolidin-1-yl)-6-oxo-5,6-dihydropyrido[2,3-b]pyrazine-7-carboxamide]				< 1000 nM
CN1CCN(c2cnc3c(cc(C(=O)NCc4ccc(C#N)cc4)c(=O)n3CC(=O)N3CC4(CC4)C3)n2)C1=O [Compound 11, 5-[2-(5-azaspiro[2.3]hexan-5-yl)-2-oxoethyl]-N-[(4-cyanophenyl)methyl]-2-(3-methyl-2-oxoimidazolidin-1-yl)-6-oxo-5,6-dihydropyrido[2,3-b]pyrazine-7-carboxamide]				< 1000 nM
CCOC(=O)CCN1CCN(c2cnc3c(cc(C(=O)NCc4ccc(Cl)cc4)c(=O)n3CC(=O)N3CC(C)(F)C3)n2)C1=O [Compound 17, ethyl 3-[3-(7-{[(4-chlorophenyl)methyl]carbamoyl}-5-[2-(3-fluoro-3-methylazetidin-1-yl)-2-oxoethyl]-6-oxo-5,6-dihydropyrido[2,3-b]pyrazin-2-yl)-2-oxoimidazolidin-1-yl]propanoate]				< 1000 nM
CC1(F)CN(C(=O)Cn2c(=O)c(C(=O)NCc3ccc(Cl)cc3)cc3nc(N4CCN(CCC(=O)O)C4=O)cnc32)C1 [Compound 18, 3-[3-(7-{[(4-chlorophenyl)methyl]carbamoyl}-5-[2-(3-fluoro-3-methylazetidin-1-yl)-2-oxoethyl]-6-oxo-5,6-dihydropyrido[2,3-b]pyrazin-2-yl)-2-oxoimidazolidin-1-yl]propanoic acid]		> 40000 nM	> 10000 nM	< 1000 nM
CNCCN1CCN(c2cnc3c(cc(C(=O)NCc4ccc(Cl)cc4)c(=O)n3CC(=O)N3CC(C)(F)C3)n2)C1=O [Compound 23, N-[(4-chlorophenyl)methyl]-5-[2-(3-fluoro-3-methylazetidin-1-yl)-2-oxoethyl]-2-{3-[2-(methylamino)ethyl]-2-oxoimidazolidin-1-yl}-6-oxo-5,6-dihydropyrido[2,3-b]pyrazine-7-carboxamide-hydrogen chloride]				< 1000 nM
CN(CCN1CCN(c2cnc3c(cc(C(=O)NCc4ccc(Cl)cc4)c(=O)n3CC(=O)N3CC(C)(F)C3)n2)C1=O)S(C)(=O)=O [Compound 24, N-[(4-chlorophenyl)methyl]-5-[2-(3-fluoro-3-methylazetidin-1-yl)-2-oxoethyl]-2-(3-{2-[(methanesulfonyl)(methyl)amino]ethyl}-2-oxoimidazolidin-1-yl)-6-oxo-5,6-dihydropyrido[2,3-b]pyrazine-7-carboxamide]				> 1000 nM
CC1(F)CN(C(=O)Cn2c(=O)c(C(=O)NCc3ccc(Cl)cc3)cc3nc(N4CCN(CCNC(=O)CN)C4=O)cnc32)C1 [Compound 38, N-[(4-chlorophenyl)methyl]-5-[2-(3-fluoro-3-methylazetidin-1-yl)-2-oxoethyl]-2-{3-[2-(glycylamino)ethyl]-2-oxoimidazolidin-1-yl}-6-oxo-5,6-dihydropyrido[2,3-b]pyrazine-7-carboxamide-hydrochloride salt]				< 1000 nM
CC1(F)CN(C(=O)Cn2c(=O)c(C(=O)NCc3ccc(Cl)cc3)cc3nc(N4CCN(CCN5CCOCC5)C4=O)cnc32)C1 [Compound 39, N-[(4-chlorophenyl)methyl]-5-[2-(3-fluoro-3-methylazetidin-1-yl)-2-oxoethyl]-2-{3-[2-(morpholin-4-yl)ethyl]-2-oxoimidazolidin-1-yl}-6-oxo-5,6-dihydropyrido[2,3-b]pyrazine-7-carboxamide]				> 1000 nM
